Results from PubChem BioAssay (NCI).
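Interpolation was linear, between the two tested concentrations surrounding the appropriate level; five concentrations were tested over 48 hours in 96-well plates. GI50 marks 50% less growth. TGI marks complete inhibition of growth.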

Legend:
Assay in all cases: growth of human tumour cells (NCI), 48 h
[1] = tested on: OVCAR-8 ovarian
[2] = tested on: SK-OV-3 ovarian
[3] = tested on: M14 melanoma
[4] = tested on: NCI-H522 lung
[5] = tested on: LOX IMVI melanoma
[6] = tested on: HOP-62 NSCLC
[7] = tested on: NCI-H23 lung
[8] = tested on: A498 renal
[9] = tested on: NCI-H460 lung
[10] = tested on: OVCAR-4 ovarian

SMILES: O=c1c(O)cccc2cc(O)c(O)c(O)c12
- GI50 [1]: 27.3 µM
- TGI [1]: > 100 µM
- GI50 [2]: > 100 µM
- TGI [2]: > 100 µM
- GI50 [3]: 30.6 µM
- TGI [3]: > 100 µM
- GI50 [4]: 3.63 µM
- TGI [4]: 14.5 µM
- GI50 [5]: 13.2 µM
- TGI [5]: > 100 µM
- GI50 [6]: > 100 µM
- TGI [6]: > 100 µM
- GI50 [7]: 8.89 µM
- TGI [7]: > 100 µM
- GI50 [8]: 4.16 µM
- TGI [8]: > 100 µM
- GI50 [9]: 6.86 µM
- TGI [9]: > 100 µM

SMILES: O/N=C1/C(=C/c2ccc(Oc3ccccc3)cc2)CCCC1C(NO)c1ccc(Oc2ccccc2)cc1 (stereo not given)
- TGI [1]: > 100 µM
- TGI [2]: > 100 µM
- TGI [3]: > 100 µM
- TGI [5]: 29.1 µM
- TGI [6]: > 100 µM
- TGI [10]: > 100 µM
- TGI [7]: 63.3 µM
- TGI [9]: > 100 µM

SMILES: O=C(c1ccccc1)c1oc2ccc(Br)cc2c1-c1cnn(-c2ccccc2)c1
- TGI [2]: > 100 µM
- TGI [3]: > 100 µM
- TGI [4]: > 100 µM
- TGI [5]: > 100 µM
- TGI [6]: > 100 µM
- TGI [10]: > 100 µM
- TGI [7]: > 100 µM
- TGI [9]: > 100 µM

SMILES: COc1cc(O)c2c(c1)C(=O)C=C(Cl)C2=O
- TGI [1]: > 100 µM
- TGI [2]: > 100 µM
- TGI [3]: > 100 µM
- TGI [4]: > 100 µM
- TGI [5]: > 100 µM
- TGI [10]: > 100 µM
- TGI [7]: > 100 µM
- TGI [8]: > 100 µM

SMILES: Cc1cc2cn3c4ccc(O)cc4[nH]c(=O)c3c2cc1C
- GI50 [1]: 0.0359 µM
- TGI [1]: 1.31 µM
- GI50 [2]: 0.0293 µM
- TGI [2]: 0.298 µM
- GI50 [4]: 0.0164 µM
- TGI [4]: 0.0697 µM
- GI50 [6]: 0.0415 µM
- TGI [6]: 1.33 µM
- GI50 [10]: 0.0675 µM
- TGI [10]: 1.81 µM
- GI50 [7]: 0.0744 µM
- TGI [7]: 1.4 µM
- GI50 [8]: 0.0319 µM
- TGI [8]: 1.43 µM

SMILES: Cc1ccccc1C(=O)Oc1ccc(O)cc1
- TGI [1]: > 100 µM
- TGI [2]: > 100 µM
- TGI [3]: > 100 µM
- TGI [4]: > 100 µM
- TGI [6]: > 100 µM
- TGI [10]: > 100 µM
- TGI [7]: > 100 µM
- TGI [8]: > 100 µM
- TGI [9]: > 100 µM

SMILES: CC(=O)O[C@H]1CCC2[C@@H]3CCC4=C(O)C(=O)C(C#N)C[C@]4(C)C3CC[C@@]21C (stereo not given in full)
- TGI [1]: > 100 µM
- TGI [2]: > 100 µM
- TGI [3]: > 100 µM
- TGI [5]: > 100 µM
- TGI [6]: > 100 µM
- TGI [10]: 90.9 µM
- TGI [7]: > 100 µM
- TGI [8]: 0.891 µM
- TGI [9]: > 100 µM

SMILES: COC(=O)NC1(NC(=O)OC)NC(=O)c2cc(OC)c(OC)c(OC)c2N1
- TGI [1]: > 100 µM
- TGI [2]: > 100 µM
- TGI [3]: > 100 µM
- TGI [4]: 41.5 µM
- TGI [6]: > 100 µM
- TGI [10]: > 100 µM
- TGI [7]: > 100 µM
- TGI [8]: > 100 µM
- TGI [9]: > 100 µM

SMILES: CCOC(=O)C(=O)Nc1ccc(Cl)cc1C
- TGI [1]: > 100 µM
- TGI [2]: > 100 µM
- TGI [3]: > 100 µM
- TGI [4]: > 100 µM
- TGI [5]: > 100 µM
- TGI [6]: > 100 µM
- TGI [10]: > 100 µM
- TGI [7]: > 100 µM
- TGI [9]: > 100 µM

SMILES: COc1ccc(C[C@@H]2NC[C@@H](O)[C@@H]2OC(C)=O)cc1
- GI50 [1]: 3.48 µM
- TGI [1]: 0.112 µM
- GI50 [3]: 11.8 µM
- GI50 [4]: 2.06 µM
- GI50 [5]: 3.46 µM
- GI50 [6]: 19.3 µM
- GI50 [10]: 25.9 µM
- GI50 [7]: 2.76 µM
- GI50 [8]: 1.14 µM
- GI50 [9]: 3.43 µM

SMILES: S=C(Nc1ccc(Cl)cc1)Nc1ccc(-c2nc3ccccc3o2)cc1
- GI50 [1]: 21 µM
- TGI [1]: 49.7 µM
- GI50 [2]: 32.3 µM
- TGI [2]: > 100 µM
- GI50 [3]: 23.2 µM
- TGI [3]: 52.9 µM
- GI50 [4]: 11 µM
- TGI [4]: 26.7 µM
- GI50 [5]: 11.7 µM
- TGI [5]: 26.3 µM
- GI50 [6]: 26 µM
- TGI [6]: 57.4 µM
- GI50 [10]: 25.1 µM
- TGI [10]: > 100 µM
- GI50 [7]: 17.7 µM
- TGI [7]: 41.8 µM
- GI50 [9]: 17.4 µM
- TGI [9]: 58.3 µM

SMILES: Cc1ccc(C2NC(=O)c3ccccc3N2)s1 (stereo not given)
- TGI [1]: 54.2 µM
- TGI [2]: 91.6 µM
- TGI [3]: > 100 µM
- TGI [4]: 18.6 µM
- TGI [5]: > 100 µM
- TGI [6]: > 100 µM
- TGI [7]: 58.2 µM
- TGI [8]: > 100 µM
- TGI [9]: 58.4 µM

SMILES: Cc1nc(-c2ccccc2)cc2c1c(=O)oc1ccccc12
- TGI [1]: > 100 µM
- TGI [2]: > 100 µM
- TGI [3]: > 100 µM
- TGI [4]: > 100 µM
- TGI [6]: > 100 µM
- TGI [10]: > 100 µM
- TGI [7]: > 100 µM
- TGI [9]: > 100 µM

SMILES: CC(C)C1CC2C(=O)N(c3ccccc3)C(=O)C2c2[nH]c3ccccc3c21 (stereo not given)
- TGI [1]: 40.1 µM
- TGI [2]: 79.4 µM
- TGI [3]: > 100 µM
- TGI [6]: > 100 µM
- TGI [10]: 5.63 µM
- TGI [7]: 84 µM
- TGI [8]: > 100 µM
- TGI [9]: > 100 µM

SMILES: Cc1cc(Nc2c3ccccc3nc3ccccc23)ccc1NS(C)(=O)=O
- GI50 [1]: 3.41 µM
- TGI [1]: 21.7 µM
- GI50 [2]: 6.28 µM
- TGI [2]: 20.1 µM
- GI50 [3]: 3.69 µM
- TGI [3]: 14.1 µM
- GI50 [4]: 3.3 µM
- TGI [4]: 13.1 µM
- GI50 [5]: 3.13 µM
- TGI [5]: 13.5 µM
- GI50 [6]: 4.61 µM
- TGI [6]: 17.9 µM
- GI50 [10]: 5.03 µM
- TGI [10]: 46.5 µM
- GI50 [8]: 2.24 µM
- TGI [8]: 10.6 µM
- GI50 [9]: 3.07 µM
- TGI [9]: 11.6 µM

SMILES: OC(COc1ccc(F)cc1)Cn1cnc2c(Cl)ncnc21 (stereo not given)
- GI50 [1]: 78.6 µM
- TGI [1]: > 100 µM
- GI50 [2]: > 100 µM
- TGI [2]: > 100 µM
- GI50 [4]: > 100 µM
- TGI [4]: > 100 µM
- GI50 [5]: 39.1 µM
- TGI [5]: > 100 µM
- GI50 [6]: > 100 µM
- TGI [6]: > 100 µM
- GI50 [10]: > 100 µM
- TGI [10]: > 100 µM
- GI50 [8]: > 100 µM
- TGI [8]: > 100 µM
- GI50 [9]: > 100 µM
- TGI [9]: > 100 µM

SMILES: CN(/N=C/c1cccc2cccnc12)c1ccc([N+](=O)[O-])cc1
- TGI [1]: > 100 µM
- TGI [2]: > 100 µM
- TGI [3]: > 100 µM
- TGI [5]: > 100 µM
- TGI [6]: > 100 µM
- TGI [7]: > 100 µM
- TGI [8]: > 100 µM
- TGI [9]: > 100 µM

SMILES: O=C(Cc1nc2ccccc2s1)C(=O)Nc1cccc(Cl)c1
- TGI [1]: > 100 µM
- TGI [2]: > 100 µM
- TGI [3]: > 100 µM
- TGI [4]: > 100 µM
- TGI [5]: > 100 µM
- TGI [6]: > 100 µM
- TGI [10]: > 100 µM
- TGI [7]: > 100 µM
- TGI [8]: > 100 µM

SMILES: O=C(/C=C/C=C/c1c(C2CC2)nc2ccccc2c1-c1ccc(F)cc1)c1cccs1
- GI50 [1]: 3.58 µM
- TGI [1]: > 100 µM
- GI50 [2]: 9.44 µM
- TGI [2]: > 100 µM
- GI50 [4]: 2.52 µM
- TGI [4]: 9.09 µM
- GI50 [6]: 2.74 µM
- TGI [6]: 7.25 µM
- GI50 [10]: 1.64 µM
- TGI [10]: 14.7 µM
- GI50 [7]: 2.35 µM
- TGI [7]: > 100 µM
- GI50 [8]: 1.67 µM
- TGI [8]: 3.58 µM
- GI50 [9]: 1.14 µM
- TGI [9]: 3.31 µM

SMILES: O=C(Nc1ccccc1O)c1ccc(CNc2ccnc(C(F)(F)F)c2)cc1
- GI50 [1]: 5.15 µM
- TGI [1]: > 100 µM
- GI50 [2]: 5.41 µM
- TGI [2]: 41.7 µM
- GI50 [3]: 3.86 µM
- TGI [3]: 38 µM
- GI50 [5]: 2.8 µM
- TGI [5]: 46 µM
- GI50 [6]: 5.54 µM
- TGI [6]: 47.6 µM
- GI50 [10]: 17.2 µM
- TGI [10]: > 100 µM
- GI50 [7]: 4.72 µM
- TGI [7]: 81.4 µM
- GI50 [8]: 2.84 µM
- TGI [8]: 12.2 µM
- GI50 [9]: 3.78 µM
- TGI [9]: 83.4 µM
